This is an account of results in patent US6569836B2, “6-O-alkyl-2-nor-2-substituted ketolide derivatives” (Abbott Laboratories, priority 1999, dated 2003).

What all share (assay): In vitro antibacterial activity, agar dilution MIC
In general terms: Agar dilution tests growth on a series of plates holding different concentrations.

The test system of experiment [1] is Streptococcus Pneumonia ATCC 6303. The experiment is classed as cell-based. As to conditions: code XX, BHI agar, 35-37° C., 20-24 hours, unit assumed. As to the method: (§1) Each plate was inoculated with 1:100 (or 1:10 for slow-growing strains, such as Micrococcus and Streptococcus) dilutions of up to 32 different microorganisms, using a Steers replicator block. The inoculated plates were incubated at 35-37° C. for 20-24 hours. In addition, a control plate using BHI agar with no test compound was prepared and incubated at the beginning and end of each test. A plate containing erythromycin A was also prepared to provide test-to-test comparability. […] After incubation, each plate was visually inspected. The minimum inhibitory concentration (MIC) was defined as the lowest concentration of drug yielding no growth, a slight haze, or sparsely isolated colonies on the inoculum spot as compared to the growth control.

Experiment [2] deals with Streptococcus Pneumonia 5649. The experiment is classed as cell-based. As to conditions: code ZA, BHI agar, 35-37° C., 20-24 hours, unit assumed. As to the method:
as §1

Experiment [3] concerns Streptococcus Pneumonia GYR 1171. The experiment is classed as cell-based. As to conditions: code YY, BHI agar, 35-37° C., 20-24 hours, unit assumed. The procedure:
as §1

For experiment [4], the system named is Haemophilislnfluenzae DILL AMP R. The format is cell-based, Haemophilus influenzae. The conditions noted are these: code WW, BHI agar, 35-37° C., 20-24 hours, unit assumed. The procedure:
Representative compounds of the present invention were assayed in vitro for antibacterial activity as follows: twelve petri dishes containing successive aqueous dilutions of the test compound mixed with 10 mL of sterilized Brain Heart Infusion (BHI) agar (Difco 0418-01-5) were prepared. Each plate was inoculated with 1:100 (or 1:10 for slow-growing strains, such as Micrococcus and Streptococcus) dilutions of up to 32 different microorganisms, using a Steers replicator block. The inoculated plates were incubated at 35-37° C. for 20-24 hours. In addition, a control plate using BHI agar with no test compound was prepared and incubated at the beginning and end of each test.
A plate containing erythromycin A was also prepared to provide test-to-test comparability.
After incubation, each plate was visually inspected. The minimum inhibitory concentration (MIC) was defined as the lowest concentration of drug yielding no growth, a slight haze, or sparsely isolated colonies on the inoculum spot as compared to the growth control.

The subject of experiment [5] is Streptococcus Pneumonia 5979. The experiment is classed as cell-based. As to conditions: code ZZ, BHI agar, 35-37° C., 20-24 hours, unit assumed. The procedure: as §1, with “test.” for “test. A plate containing erythromycin A was also prepared to provide test-to-test comparability.”
For experiment [6], the system named is Streptococcus pyogenes EES61. The format is cell-based. The conditions noted are these: code LL, BHI agar, 35-37° C., 20-24 hours, unit assumed. The procedure:
as §1

In another experiment the test system is Candida albicans CCH 442. The experiment is classed as cell-based. As to conditions: code TT, BHI agar, 35-37° C., 20-24 hours, unit assumed. As to the method: as §1
In experiment [7] the test system is Streptococcus bovis A-5169. The experiment is classed as cell-based. As to conditions: code JJ, BHI agar, 35-37° C., 20-24 hours, unit assumed. The procedure: as §1
Experiment [8] relates to Staphylococcus aureus NCTC 10649M. The experiment is classed as cell-based. As to conditions: code EE, BHI agar, 35-37° C., 20-24 hours, unit assumed. The procedure:
as §1

The test system of experiment [9] is Mycobacterium smegmatis ATCC 114. The experiment is classed as cell-based. The conditions noted are these: code UU, BHI agar, 35-37° C., 20-24 hours, unit assumed. The procedure:
as §1

The subject of experiment [10] is Streptococcus pyogenes PIU 2548. The format is cell-based. As to conditions: code NN, BHI agar, 35-37° C., 20-24 hours, unit assumed. As to the method:
as §1

For experiment [11], the system named is Staphylococcus aureus 1775. The experiment is classed as cell-based. The conditions noted are these: code GG, BHI agar, 35-37° C., 20-24 hours, unit assumed. The procedure: as §1
Experiment [12] relates to Staphylococcus aureus A-5177. The format is cell-based. As to conditions: code BB, BHI agar, 35-37° C., 20-24 hours, unit assumed. The procedure: as §1
The subject of experiment [13] is Staphylococcus aureus ATCC 6538P. The format is cell-based. As to conditions: code AA, BHI agar, 35-37° C., 20-24 hours, unit assumed. The procedure:
as §1

Experiment [14] relates to Streptococcus pyogenes 930. The format is cell-based. As to conditions: code MM, BHI agar, 35-37° C., 20-24 hours, unit assumed. As to the method: as §1
Experiment [15] relates to Staphylococcus aureus A-5278. The experiment is classed as cell-based. The conditions noted are these: code CC, BHI agar, 35-37° C., 20-24 hours, unit assumed. As to the method:
as §1

Experiment [16] concerns Nocardia Asteroides ATCC 99700. The format is cell-based. As to conditions: code VV, BHI agar, 35-37° C., 20-24 hours, unit assumed. The procedure: as §1
In experiment [17] the test system is Streptococcus agalactiae CMX 508. The experiment is classed as cell-based. The conditions noted are these: code KK, BHI agar, 35-37° C., 20-24 hours, unit assumed. As to the method: as §1
Experiment [18] deals with Staphylococcus epidermidis 3519. The experiment is classed as cell-based. The conditions noted are these: code HH, BHI agar, 35-37° C., 20-24 hours, unit assumed. The procedure:
as §1

The subject of experiment [19] is Micrococcusluteus ATCC 4698. The format is cell-based, Micrococcus luteus. As to conditions: code PP, BHI agar, 35-37° C., 20-24 hours, unit assumed. As to the method:
as §1

Another experiment relates to Escherichiacoli SS. The format is cell-based, Escherichia coli. The conditions noted are these: code RR, BHI agar, 35-37° C., 20-24 hours, unit assumed. As to the method: as §1
Another experiment deals with Escherichiacoli JUHL. The experiment is classed as cell-based, Escherichia coli. As to conditions: code QQ, BHI agar, 35-37° C., 20-24 hours, unit assumed. As to the method:
as §1

`CCC1OC(=O)C(CC(C(=O)OC)C(=O)OC)C(=O)C(C)C(OC2OC(C)CC(N(C)C)C2O)C(C)(OCC=Cc2cnc3ccccc3c2)CC(C)C(=O)C(C)C2NC(=O)OC12C` (stereo not shown) [Example 7, Compound of Formula (XI), R^p is Hydrogen Y is Hydrogen R^2 is 3-quinolyl, R^3 is —CH CH(CO2Me)2 and R^4 is Hydrogen]: the Antibacterial Activity (MIC's) in experiment [1] stood at 0.03 µg/mL; in [2], 0.25 µg/mL; in [3] it was 0.03 µg/mL; in experiment [4], 8 µg/mL; in experiment [5], 64 µg/mL.

`CCC1OC(=O)CC(=O)C(C)C(OC2OC(C)CC(N(C)C)C2O)C(C)(OCC=Cc2cnc3ccccc3c2)CC(C)C(=O)C(C)C2NC(=O)OC12C` (stereo not shown) [Example 2, Compound of Formula (XI), R^p is Hydrogen, Y is Hydrogen, R^2 is 3-quinolyl, R^3 is Hydrogen and R^4 is Hydrogen]: the Antibacterial Activity (MIC's) in [1] is 0.03 µg/mL; in [6] it was 0.01 µg/mL; with Candida albicans CCH 442, greater than 100 µg/mL; in experiment [2], 0.5 µg/mL; in experiment [7] it was 0.02 µg/mL; in experiment [8], 0.39 µg/mL. The Antibacterial Activity (MIC's) in experiment [9] is 6.2 µg/mL; in experiment [10], 0.2 µg/mL; in experiment [11] it was greater than 100 µg/mL; in experiment [12], 0.39 µg/mL; in experiment [13] it was 0.39 µg/mL; in experiment [14] it was 50 µg/mL. Also, the Antibacterial Activity (MIC's) in experiment [15] was greater than 100 µg/mL; in experiment [3], 0.03 µg/mL; in [16] it was 0.2 µg/mL; in experiment [17], 0.02 µg/mL; in [18], 0.39 µg/mL; in [19] it was 0.2 µg/mL. The Antibacterial Activity (MIC's) in experiment [4] amounted to 8 µg/mL; in the experiment with Escherichiacoli SS it was 0.39 µg/mL; with Escherichiacoli JUHL, 100 µg/mL; in [5] it was 8 µg/mL.

For the molecule `CCC1OC(=O)C(CS(=O)(=O)O)C(=O)C(C)C(OC2OC(C)CC(N(C)C)C2O)C(C)(OCC=Cc2cnc3ccccc3c2)CC(C)C(=O)C(C)C2NC(=O)OC12C` (stereo not shown) [Example 6, Compound of Formula (XI), R^p is Hydrogen, Y is Hydrogen, R^2 is 3-quinolyl, R^3 is —CH2SO3H and R^4 is Hydrogen], the Antibacterial Activity (MIC's) in [1] is 0.25 µg/mL; in [6], 0.2 µg/mL; in the experiment on Candida albicans CCH 442, greater than 100 µg/mL; in experiment [2] it was 2 µg/mL; in [7], 0.05 µg/mL; in [8], 0.78 µg/mL. Besides, the Antibacterial Activity (MIC's) is 12.5 µg/mL in [9]; 0.78 µg/mL in experiment [10]; greater than 100 µg/mL in experiment [11]; 0.78 µg/mL in experiment [12]; 0.39 µg/mL in experiment [13]; 25 µg/mL in experiment [14]. Besides, the Antibacterial Activity (MIC's) in experiment [15] is greater than 100 µg/mL; in experiment [3] it was 0.125 µg/mL; in [16] it was 0.2 µg/mL; in [17] it was 0.2 µg/mL; in experiment [18], 0.78 µg/mL; in experiment [19], 0.39 µg/mL. Further, the Antibacterial Activity (MIC's) in experiment [4] was 16 µg/mL; in the experiment on Escherichiacoli SS, 3.1 µg/mL; with Escherichiacoli JUHL, greater than 100 µg/mL; in [5], 64 µg/mL.

As for `C=CCC1C(=O)OC(CC)C2(C)OC(=O)NC2C(C)C(=O)C(C)CC(C)(OCC=Cc2cnc3ccccc3c2)C(OC2OC(C)CC(N(C)C)C2O)C(C)C1=O` (stereo not shown) [Example 5, Compound of Formula (XI), R^p is Hydrogen, Y is Hydrogen, R^2 is 3-quinolyl R^3 is —CH2CH═CH2 and R^4 is hydrogen], the Antibacterial Activity (MIC's) in [1] was 32 µg/mL; in experiment [6], 100 µg/mL; with Candida albicans CCH 442 it was greater than 100 µg/mL; in experiment [2] it was greater than 128 µg/mL; in experiment [7] it was 25 µg/mL; in experiment [8], greater than 100 µg/mL. The Antibacterial Activity (MIC's) in experiment [9], in experiment [10], in experiment [11], in experiment [12], in [13] and in experiment [14] was greater than 100 µg/mL in each case. For the same molecule, the Antibacterial Activity (MIC's) is greater than 100 µg/mL in [15]; 32 µg/mL in experiment [3]; greater than 100 µg/mL in experiment [16]; 100 µg/mL in [17]; greater than 100 µg/mL in [18]; greater than 100 µg/mL in [19]. Besides, the Antibacterial Activity (MIC's) with Escherichiacoli SS is greater than 100 µg/mL; in the experiment on Escherichiacoli JUHL, greater than 100 µg/mL; in [5], greater than 128 µg/mL.

`CC[C@H]1OC(=O)[C@H](C)[C@@H](O[C@H]2C[C@@](C)(OC)[C@@H](O)[C@H](C)O2)[C@H](C)[C@@H](O[C@@H]2O[C@H](C)C[C@H](N(C)C)[C@H]2O)[C@](C)(O)C[C@@H](C)C(=O)[C@H](C)[C@@H](O)[C@]1(C)O` [Ery. A, Erythromycin A, reference compound]: the Antibacterial Activity (MIC's) in experiment [1] is 0.06 µg/mL; in experiment [6] it was 0.05 µg/mL; in the experiment on Candida albicans CCH 442, greater than 100 µg/mL; in [2], 16 µg/mL; in experiment [7] it was 0.02 µg/mL; in experiment [8] it was 0.39 µg/mL. Moreover, the Antibacterial Activity (MIC's) in [9] was 3.1 µg/mL; in experiment [10] it was 6.2 µg/mL; in experiment [11], greater than 100 µg/mL; in experiment [12], 3.1 µg/mL; in experiment [13], 0.2 µg/mL; in experiment [14], greater than 100 µg/mL. Besides, the Antibacterial Activity (MIC's) in [15] was greater than 100 µg/mL; in experiment [3], 0.06 µg/mL; in experiment [16], 0.1 µg/mL; in experiment [17], 0.05 µg/mL; in experiment [18], 0.39 µg/mL; in experiment [19] it was 0.2 µg/mL. Moreover, the results for the Antibacterial Activity (MIC's) (in [4]; in the experiment with Escherichiacoli SS; in the experiment with Escherichiacoli JUHL) were 4 µg/mL, 0.78 µg/mL and greater than 100 µg/mL, respectively.
